Assays:
[1] = Oxygen and CO2 carrying capacity of the PFC; format: physicochemical; conditions: at body temperature
Method: Perfluoro(tert-butylcyclohexane) can carry about 43 mL of oxygen per 100 mL of PFC, and 196 mL of CO2 per 100 mL of PFC at body temperature.

[2] = Physical properties of perfluoro(tert-butylcyclohexane); format: physicochemical
From the text: Physical properties of perfluoro(tert-butylcyclohexane) are as follows:
Oxycyte® is a perfluorocarbon emulsion oxygen carrier. The active ingredient in Oxycyte®, perfluoro(tert-butylcyclohexane) (C10F20, MW˜500), also known as F-tert-butylcyclohexane or “FtBu”, is a saturated alicyclic PFC. […] Oxycyte® can be used in the PFC compositions, methods and uses described herein.
Being that the PFCs are slightly lipophilic at body temperature and would help in the transport of oxygen into and removal of carbon dioxide from, e.g., periocular skin.

In the case of `FC(F)(F)C(C(F)(F)F)(C(F)(F)F)C1(F)C(F)(F)C(F)(F)C(F)(F)C(F)(F)C1(F)F` [perfluoro(tert-butylcyclohexane)], the CO2 carried [1] is reported as ~196 mL of CO2 per 100 mL of PFC, the oxygen carried [1] is reported as “about 43 mL of oxygen per 100 mL of PFC” and the Density [2] is reported as 1.97 g/mL. For the same compound, the “Kinematic Viscosity” value [2] was 5.378 cP, the water solubility [2] was “non-water soluble” and the “Vapor Pressure” value ([2]; @ 25° C.) was 3.8 mmHg. For the same compound, the “Vapor Pressure” value ([2]; @ 37° C.) was 4.4 mmHg, the lipophilicity ([2]; at body temperature) was “only slightly lipophilic” and the lipophilicity ([2]; at room temperature) was “not lipophilic”. The lipophilicity ([2]; temperature not stated) was “non-lipophilic”.

From patent US20110230566A1, “PERFLUOROCARBON EYE CREAM FORMULATIONS” (priority 2010, published 2011)
